Reference: patent publication US8231887B2, “Pesticidal compositions” (BASF Corporation, priority 2008, dated 2012)
Several values for one entry are separate records, joined by “and”; a condition that tells them apart may be missing. Identical values can stand only once.

Test system: cockroaches
Assay: Topical toxicity test of various compounds and/or PD23 mineral oil, dead at 24 h (Example 12)
Type: in vivo, Blattella germanica
Settings: for Proportion dead at 24 h: calculated proportion; for increase in mortality when combined with PD23 mineral oil: result in words, compared to the other compounds tested
Method: Toxicity evaluations were performed on 7-14 day old adult male and female German cockroaches (SCJ Strain, S.C. Johnson & Son, Racine, Wis.). Approximately 12 cockroaches were transferred to individual 100×20 mm polystyrene Petri dishes and anesthetized with a 15-25 second exposure to carbon dioxide. The inside edge of each Petri dish was lightly coated with mineral oil plus petroleum jelly in a 1:3 (wt/wt) ratio to minimize escape. Anesthetized cockroaches were positioned with their ventral side up, and a 1 μl drop of the diluted test composition was applied to the area between the meso- and metathoracic legs using a Rainin L-10, 10 μl capacity pipette (Rainin Instrument, LLC, Oakland, Calif.). Five replications of 12 male cockroaches were done for each test composition. Separate tests were done using female cockroaches. Results were evaluated at 24 hours following treatment. Cockroaches were scored as either alive (dorsal side up, active movement when abdomen prodded with dissecting probe) or moribund/dead (dorsal side up and no movement when abdomen prodded or ventral side up and insect unable to right itself).

[1] = compound alone, 0.25 mg, one replicate group per row

SMILES | # dead at 24 h (Table 17, composite data) | Proportion dead at 24 h (Table 17, composite data) | further results
CCC(C)=O [2-butanone] | 3 | 0.083 | 
CCOCCO [2-ethoxyethanol] | 1 | 0.033 | increase in mortality when combined with PD23 mineral oil: greatest increase in mortality
CC(=O)c1ccccc1 [Acetophenone (98-86-2) (0.10 mg), Acetophenone] | 0 |  | increase in mortality when combined with PD23 mineral oil: greatest increase in mortality
ClC(Cl)Cl [Chloroform-anhydrous (67-66-3) (2.0 mg), Chloroform] | 1 | 0.050 | 
OCCOCCO [Di(ethylene) glycol (111-46-6) (0.80 mg), Di(ethylene) glycol] | 6 |  | 
ClCCl [Dichloromethane] |  | 0.000 | pest or weed control at 1.5 mg (Blattella germanica, topical, 24 h, read-out: Proportion dead at 24 hr): 0%; # dead at 24 h (compound alone, 1.50 mg): 0
COCOC [Dimethoxymethane] |  | 0.000 | pest or weed control at 2 mg (Blattella germanica, topical, 24 h, compound alone, 2.00 mg, read-out: Proportion dead at 24 hr): 0%; # dead at 24 h (compound alone, 2.00 mg): 0; Proportion dead at 24 hr (compound alone, 2.00 mg): 0.000
CCCCCC [Hexanes (110-54-3) (0.80 mg), Hexanes] | 1 | 0.100 | 
CC(=O)OC(C)C [Isopropyl acetate (108-21-4) (1.0 mg), Isopropyl acetate] | 3 | 0.150 | 
CC(=O)OC(C)C [Isopropyl acetate] |  |  | # dead at 24 h (compound alone, 1.00 mg): 1 and 2; Proportion dead at 24 hr (compound alone, 1.00 mg): 0.200
CC(Cl)(Cl)Cl [Methyl chloroform (71-55-6) (2.00 mg), Methyl chloroform] | 2 | 0.095 | 
CC(Cl)(Cl)Cl [Methyl chloroform] |  |  | # dead at 24 h (compound alone, 2.00 mg): 1; Proportion dead at 24 hr (compound alone, 2.00 mg): 0.091 and 0.100
CC(=O)CC(C)C [Methyl isobutyl ketone] | 1 | 0.048 | 
COC(C)(C)C [Methyl t-butyl ether] | 5 | 0.227 | # dead at 24 h (compound alone, 2.00 mg): 2 and 3; Proportion dead at 24 hr (compound alone, 2.00 mg): 0.300
c1ccncc1 [Pyridine (110-86-1) (0.10 mg), Pyridine] | 1 | 0.032 | increase in mortality when combined with PD23 mineral oil: greatest increase in mortality
C1CCOC1 [Tetrahydrofuran (109-99-9) (0.80 mg), Tetrahydrofuran] | 3 | 0.300 | 
C1CCOC1 [Tetrahydrofuran] |  |  | # dead at 24 h (compound alone, 0.80 mg): 3; Proportion dead at 24 hr (compound alone, 0.80 mg): 0.300
Cc1ccccc1 [Toluene (108-88-3) (0.90 mg), Toluene] | 0 | 0.000 | 
Cc1ccccc1 [Toluene] |  |  | # dead at 24 h (compound alone, 0.90 mg): 0; Proportion dead at 24 hr (compound alone, 0.90 mg): 0.000
CC(=O)OCC(COC(C)=O)OC(C)=O [Triacetin (102-76-1) (2.0 mg), Triacetin] | 1 | 0.033 | increase in mortality when combined with PD23 mineral oil: greatest increase in mortality
CCOCC [diethyl ether (60-29-7) (2.0 mg), diethyl ether] | 0 | 0.000 | 
CCOCC [diethyl ether] |  |  | # dead at 24 h (compound alone, 2.00 mg): 0; Proportion dead at 24 hr (compound alone, 2.00 mg): 0.000
O=C1CCCO1 [gamma butyrolactone (96-48-0) (0.25 mg), gamma butyrolactone] | 11 | 0.407 | increase in mortality when combined with PD23 mineral oil: greatest increase in mortality
O=C1CCCO1 [gamma butyrolactone] |  |  | # dead at 24 h [1]: 3 and 5; Proportion dead at 24 hr [1]: 0.300 and 0.500
CN1CCCC1=O [n-methyl pyrrolidone] |  | 0.100 | Proportion dead at 24 h (Table 17, composite data, listed as n-methyl pyrrolidone (872-50-4) (0.10 mg)): 0.500; # dead at 24 h (compound alone, 0.05 mg): 1; # dead at 24 h (compound alone, 0.10 mg): 5
